In brackets after ≈: the same amount, converted by molar mass. Where two headings read alike, the source gives them in different places.
Assays:
[1] = set-up: species or system guinea pigs (Slc:Hertley); conditions: guinea pig, in vivo; for Average score in GPMT: male, Slc:Hertley
Procedure: Guinea pig maximization test (GPMT) which is a widely accepted model for delayed antigenicity was conducted according to the method of Mugnusson et al. (J. invest. Dermatol., 52, 1969) by using a cutaneous sensitization concentration of 1% and a patch sensitization and induction concentration of 10%. At day 1, the animal was sensitized by cutaneously administering the test substance (the quinolone compounds and the control: vehicle, vaseline) (1% solution in physiological saline+FCA emulsion) at the back of the head of the shaved guinea pigs (7 week old male Slc:Hertley). At day 7, lauryl sodium sulfate (SLC) was applied for stimulus (adjuvant treatment), and on the next day, the test substance coated on a wax paper was patched onto the shaved skin to for sealed sensitization, and after 48 hours (at day 10), the waxed paper was removed. The skin reaction was observed upon the removal. On day 22, the test substance (10%) was patched onto the anterior side of the body for induction, and the induction patching was removed after 24 hours. On the next day (at day 24) and the next day (at day 25), the skin reaction was evaluated according to the description of the document as mentioned above. Erythema and edema were scored, and the case with the total score of 2 or higher was evaluated to be positive with the maximum of the score being 7.

[2] = tested on: Mycobacterium tuberculosis (sensitive bacteria); assay: anti-Mycobacterium tuberculosis (sensitive bacteria) activity, MIC; format: cell-based
[3] = tested on: Mycobacterium tuberculosis (quinolone sensitive); assay: anti-Mycobacterium tuberculosis (quinolone sensitive) activity, MIC; format: cell-based
[4] = male, Crj:CD IGS, rat, in vivo, po, 5 mg/kg
[5] = female, cynomolgus monkey, in vivo, 5 mg/kg
in vivo [6] = conditions: male, Crj:CD IGS, rat, po, 5 mg/kg
in vivo [7] = conditions: female, cynomolgus monkey, po, 5 mg/kg
hERG K+ channel = hERG K+ channel (Homo sapiens, UniProt Q12809); assay: hERG-K^+ channel blocking effect
hERG K+ channel, sequence (Q12809 whole entry): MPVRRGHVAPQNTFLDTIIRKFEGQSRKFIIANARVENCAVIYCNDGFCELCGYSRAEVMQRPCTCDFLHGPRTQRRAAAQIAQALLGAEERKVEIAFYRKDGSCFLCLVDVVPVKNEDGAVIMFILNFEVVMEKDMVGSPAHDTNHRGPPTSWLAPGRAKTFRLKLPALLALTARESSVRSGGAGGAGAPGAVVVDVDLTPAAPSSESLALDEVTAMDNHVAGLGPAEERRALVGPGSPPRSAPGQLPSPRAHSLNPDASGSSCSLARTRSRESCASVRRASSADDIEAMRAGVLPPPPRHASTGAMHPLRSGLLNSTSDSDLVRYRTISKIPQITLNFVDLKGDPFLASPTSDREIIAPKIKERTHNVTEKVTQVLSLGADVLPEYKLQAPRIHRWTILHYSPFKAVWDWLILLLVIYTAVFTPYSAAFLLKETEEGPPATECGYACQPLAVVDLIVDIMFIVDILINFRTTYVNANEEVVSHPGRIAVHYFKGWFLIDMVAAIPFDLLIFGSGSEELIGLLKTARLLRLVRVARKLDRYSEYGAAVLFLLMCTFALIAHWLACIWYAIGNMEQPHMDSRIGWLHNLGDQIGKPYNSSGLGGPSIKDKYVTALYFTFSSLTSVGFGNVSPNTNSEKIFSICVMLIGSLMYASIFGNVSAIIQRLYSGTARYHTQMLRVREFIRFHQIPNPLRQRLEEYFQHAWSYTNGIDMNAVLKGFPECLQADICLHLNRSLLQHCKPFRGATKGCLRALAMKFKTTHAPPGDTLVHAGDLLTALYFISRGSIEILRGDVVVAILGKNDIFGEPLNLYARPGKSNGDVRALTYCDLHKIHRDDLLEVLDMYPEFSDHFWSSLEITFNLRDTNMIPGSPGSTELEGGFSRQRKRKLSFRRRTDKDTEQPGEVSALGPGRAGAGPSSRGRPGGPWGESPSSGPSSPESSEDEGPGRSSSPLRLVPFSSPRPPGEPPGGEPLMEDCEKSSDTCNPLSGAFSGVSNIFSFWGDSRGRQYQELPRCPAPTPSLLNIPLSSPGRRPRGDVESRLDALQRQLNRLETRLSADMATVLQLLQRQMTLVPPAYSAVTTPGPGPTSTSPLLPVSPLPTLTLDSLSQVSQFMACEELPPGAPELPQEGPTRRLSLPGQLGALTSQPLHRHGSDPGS

E. coli NIHJ = assay: antibacterial activity (MIC), standard method of Japanese Society of Chemotherapy; conditions: Escherichia coli
P. vulgaris, 08601 = assay: as above; conditions: Proteus vulgaris, 08601, P. vulgaris
S. marscecens, 10100 = assay: as above
P. aeruginosa, 32104 = assay: as above; conditions: Pseudomonas aeruginosa
P. aeruginosa, 32121 = assay: as above; conditions: Pseudomonas aeruginosa
S. aureus, 209P = assay: as above; conditions: Staphylococcus aureus
S. epidermidis, 56500 = assay: as above; conditions: Staphylococcus epidermidis, 56500, S. epidermidis
E. faecalis, ATCC 19433 = assay: as above; conditions: Enterococcus faecalis, ATCC19433, E. faecalis
[8] = tested on: S. aureus, 87037 (LVFX-resistant MRSA); assay: as above; conditions: Staphylococcus aureus, MRSA, S. aureus, 87037 (LVFX-resistant MRSA)
[9] = tested on: S. pneumoniae, J24 (penicillin-intermediate resistant bacteria); assay: as above; conditions: Streptococcus pneumoniae
[10] = in vivo; cited from earlier work
CYP3A4 = CYP3A4 (Homo sapiens, UniProt P08684); conditions: known from the document cited; cited from earlier work
CYP3A4, sequence (P08684 whole entry): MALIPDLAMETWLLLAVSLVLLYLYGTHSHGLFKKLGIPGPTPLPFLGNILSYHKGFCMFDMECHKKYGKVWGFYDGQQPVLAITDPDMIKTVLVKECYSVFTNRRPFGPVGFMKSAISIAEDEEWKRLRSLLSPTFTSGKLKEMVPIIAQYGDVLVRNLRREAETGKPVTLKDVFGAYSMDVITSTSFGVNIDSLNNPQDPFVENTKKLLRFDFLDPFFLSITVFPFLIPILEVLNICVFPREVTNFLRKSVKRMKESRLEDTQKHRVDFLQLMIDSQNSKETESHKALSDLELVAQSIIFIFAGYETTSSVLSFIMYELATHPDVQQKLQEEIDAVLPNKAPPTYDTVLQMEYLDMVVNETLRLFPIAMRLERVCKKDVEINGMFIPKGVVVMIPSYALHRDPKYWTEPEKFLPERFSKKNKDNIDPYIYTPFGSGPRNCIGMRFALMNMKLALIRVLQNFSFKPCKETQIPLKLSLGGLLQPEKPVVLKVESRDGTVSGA
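Wherever Serum AUC0-8 h is given: fasted 7-week-old rats, three per group, tissue sampled up to 8 h post-dose and urine collected over 0–24 h, with conjugates measured after alkaline hydrolysis, concentrations by LC-MS/MS.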
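Wherever Tissue AUC0-8 h, Kidney is given: fasted 7-week-old rats, three per group, tissue sampled up to 8 h post-dose and urine collected over 0–24 h, with conjugates measured after alkaline hydrolysis, concentrations by LC-MS/MS.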
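Wherever Tissue AUC0-8 h, Liver is given: fasted 7-week-old rats, three per group, tissue sampled up to 8 h post-dose and urine collected over 0–24 h, with conjugates measured after alkaline hydrolysis, concentrations by LC-MS/MS.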
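Wherever Tissue AUC0-8 h, Lung is given: fasted 7-week-old rats, three per group, tissue sampled up to 8 h post-dose and urine collected over 0–24 h, with conjugates measured after alkaline hydrolysis, concentrations by LC-MS/MS.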

For `COc1c(N2C[C@@H](N)C3(CC3)C2)c(F)cc2c(=O)c(C(=O)O)cn([C@@H]3C[C@@H]3F)c12` [Comparative compound 1], the “Evaluation in GPMT” value [1] was “Positive”, the “Average score in GPMT” value [1] was 6.8 and the MIC ([2]; H37RV, strain H37Rv) was 0.06 µg/mL (≈ 0.148 µM). For the same molecule, the MIC ([2]; strain Kurono) was 0.06 µg/mL (≈ 0.148 µM), the MIC ([2]; strain Ravenel) was 0.06 µg/mL (≈ 0.148 µM) and the MIC ([2]; strain TB-s 2) was 0.125 µg/mL (≈ 0.308 µM). The MIC ([2]; strain TB-s 3) was 0.125 µg/mL (≈ 0.308 µM), the MIC ([2]; strain TB-s 4) was 0.125 µg/mL (≈ 0.308 µM) and the MIC ([2]; strain TB-s 5) was 0.06 µg/mL (≈ 0.148 µM). It also gave an MIC ([2]; strain TB-s 6) of 0.125 µg/mL (≈ 0.308 µM), an MIC ([2]; strain TB-s 7) of 0.25 µg/mL (≈ 0.617 µM) and an MIC ([2]; strain TB-s 8) of 0.06 µg/mL (≈ 0.148 µM). The MIC ([2]; strain TB-s 9) was 0.125 µg/mL (≈ 0.308 µM), the MIC ([2]; strain TB-s 10) was 0.06 µg/mL (≈ 0.148 µM) and the MIC ([2]; strain TB-s 11) was 0.125 µg/mL (≈ 0.308 µM). The MIC ([2]; strain TB-s 12) was 0.25 µg/mL (≈ 0.617 µM), the MIC ([2]; strain TB-s 13) was 0.125 µg/mL (≈ 0.308 µM) and the MIC ([2]; strain TB-s 14) was 0.125 µg/mL (≈ 0.308 µM). It also gave an MIC ([2]; strain TB-s 15) of 0.125 µg/mL (≈ 0.308 µM), an MIC ([2]; strain TB-s 16) of 0.125 µg/mL (≈ 0.308 µM) and an MIC ([2]; strain TB-s 17) of 0.125 µg/mL (≈ 0.308 µM). It also gave an MIC ([2]; strain TB-s 18) of 0.125 µg/mL (≈ 0.308 µM), an MIC ([2]; strain TB-s 19) of 0.125 µg/mL (≈ 0.308 µM) and an MIC ([2]; strain TB-s 20) of 0.25 µg/mL (≈ 0.617 µM). For the same molecule, the MIC ([2]; strain TB-s 21) was 0.125 µg/mL (≈ 0.308 µM), the MIC ([2]; strain TB-s 22) was 0.06 µg/mL (≈ 0.148 µM) and the MIC ([3]; strain 1 (QR-3)) was 1 µg/mL (≈ 2.47 µM). For the same molecule, the MIC ([3]; strain 2 (QR-6)) was 128 µg/mL (≈ 316 µM), the MIC ([3]; strain 3 (QR-1)) was 2 µg/mL (≈ 4.93 µM) and the MIC ([3]; strain 4 (QR-9)) was 32 µg/mL (≈ 78.9 µM). It also gave an MIC ([3]; strain MDR 1) of 0.5 µg/mL (≈ 1.23 µM), an MIC ([3]; strain MDR 3) of 0.5 µg/mL (≈ 1.23 µM) and an MIC ([3]; strain MDR 4) of 0.5 µg/mL (≈ 1.23 µM). For the same molecule, the MIC ([3]; strain MDR 5) was 1 µg/mL (≈ 2.47 µM), the MIC ([3]; strain MDR 7) was 0.5 µg/mL (≈ 1.23 µM) and the MIC ([3]; strain MDR 9) was 0.5 µg/mL (≈ 1.23 µM). The MIC ([3]; strain MDR 12) was 0.5 µg/mL (≈ 1.23 µM), the MIC ([3]; strain S 1) was 2 µg/mL (≈ 4.93 µM) and the “Recovery (%) in urine in relation to the amount administered, Recovery (%) including conjugate” value [4] was 23.1%. The “Serum AUC0-8 h” value [4] was 1590 ng·h/mL, the “Tissue AUC0-8 h, Kidney” value [4] was 19300 ng·h/mL and the “Tissue AUC0-8 h, Liver” value [4] was 15000 ng·h/mL. The “Tissue AUC0-8 h, Lung” value [4] was 6770 ng·h/mL, the “Tissue Cmax, Kidney” value [4] was 8.63 µg/g and the “Tissue Cmax, Liver” value [4] was 9.3 µg/g. The “Tissue Cmax, Lung” value [4] was 2.59 µg/g, the “Recovery (%) in urine in relation to the amount administered, Recovery (%) including conjugate” value [5] was 32.9% and the Cmax (in vivo [6]) was 820 ng/mL. The AUC(0-t) (in vivo [7]) was 5110 ng·h/mL, the Cmax (in vivo [7]) was 840 ng/mL and the half-life (in vivo [7]) was 5 h. For the same molecule, the inhibition at 30 µM (hERG K+ channel) was 6.7 ± 8.3%, the inhibition at 100 µM (hERG K+ channel) was 13.5 ± 3.1% and the inhibition at 300 µM (hERG K+ channel) was 24.8 ± 16.5%. The MIC (E. coli NIHJ) was no more than 0.003 µg/mL, the MIC (P. vulgaris, 08601) was 0.012 µg/mL (≈ 0.0296 µM) and the MIC (S. marscecens, 10100) was 0.05 µg/mL (≈ 0.123 µM). It also gave an MIC (P. aeruginosa, 32104) of 0.1 µg/mL (≈ 0.247 µM), an MIC (P. aeruginosa, 32121) of 0.05 µg/mL (≈ 0.123 µM) and an MIC (S. aureus, 209P) of 0.006 µg/mL (≈ 0.0148 µM). For the same molecule, the MIC (S. epidermidis, 56500) was 0.05 µg/mL (≈ 0.123 µM), the MIC (E. faecalis, ATCC 19433) was 0.1 µg/mL (≈ 0.247 µM) and the MIC [8] was 0.39 µg/mL (≈ 0.962 µM). The MIC [9] was 0.025 µg/mL (≈ 0.0617 µM).

For `CO/N=C1\CN(c2nc3c(cc2F)c(=O)c(C(=O)O)cn3C2CC2)CC1CN` (stereo not shown) [Gemifloxacin, gemifloxacin], the “Average score in GPMT” value [1] is given as 6.8 and the “side effect of rash in phase 3 clinical trial” value [10] is given as “frequently develops the side effect of rash”.

In the case of `CC[C@H]1OC(=O)[C@H](C)[C@@H](O[C@H]2C[C@@](C)(OC)[C@@H](O)[C@H](C)O2)[C@H](C)[C@@H](O[C@@H]2O[C@H](C)C[C@H](N(C)C)[C@H]2O)[C@](C)(OC)C[C@@H](C)C(=O)[C@H](C)[C@@H](O)[C@]1(C)O` [clarithromycin], the “MBI action for CYP3A4” value (CYP3A4) is given as “exhibit MBI action for CYP3A4”.

Source: US7563805B2, “Tri-, tetra-substituted-3-aminopyrrolidine derivative” (Daiichi Pharmaceutical Co., Ltd., priority 2005, dated 2009)
